Laboratory results reported in the supplement of paper PMC11451515.

System: P12-Ichikawa
Test: cell viability relative to DMSO control; higher = less cytotoxic
Details: 48 h
Outline: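 NOMO1 or SEM cells were plated at 500 cells/well and P12-Ichikawa cells at 1000 cells/well in 1536-well plates (5 μl), after each leukemia line had been adapted for at least four passages in each medium. Pin dosing delivered library compounds in DMSO at 11 threefold concentrations, 47 μM to 0.79 nM. CellTiter-Glo One luminescence was read after 48 h at 37°C. Viability is reported as a per-plate percentage of DMSO wells, with cell-free wells as background.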

[1] = HPLM + 10% dialyzed FBS, 0.000781 µM
[2] = HPLM + 10% dialyzed FBS, 0.00234 µM
[3] = HPLM + 10% dialyzed FBS, 0.00702 µM
[4] = HPLM + 10% dialyzed FBS, 0.0211 µM
[5] = HPLM + 10% dialyzed FBS, 0.0632 µM
[6] = HPLM + 10% dialyzed FBS, 0.19 µM
[7] = HPLM + 10% dialyzed FBS, 0.569 µM
[8] = HPLM + 10% dialyzed FBS, 1.71 µM
[9] = HPLM + 10% dialyzed FBS, 5.12 µM
[10] = HPLM + 10% dialyzed FBS, 15.4 µM
[11] = HPLM + 10% dialyzed FBS, 46.1 µM
[12] = RPMI 5 mM glucose + 10% FBS, 0.000781 µM
[13] = RPMI 5 mM glucose + 10% FBS, 0.00234 µM
[14] = RPMI 5 mM glucose + 10% FBS, 0.00702 µM
[15] = RPMI 5 mM glucose + 10% FBS, 0.0211 µM
[16] = RPMI 5 mM glucose + 10% FBS, 0.0632 µM
[17] = RPMI 5 mM glucose + 10% FBS, 0.19 µM
[18] = RPMI 5 mM glucose + 10% FBS, 0.569 µM
[19] = RPMI 5 mM glucose + 10% FBS, 1.71 µM
[20] = RPMI 5 mM glucose + 10% FBS, 5.12 µM
[21] = RPMI 5 mM glucose + 10% FBS, 15.4 µM
[22] = RPMI 5 mM glucose + 10% FBS, 46.1 µM
[23] = RPMI 5 mM glucose + 10% dialyzed FBS, 0.000781 µM
[24] = RPMI 5 mM glucose + 10% dialyzed FBS, 0.00234 µM
[25] = RPMI 5 mM glucose + 10% dialyzed FBS, 0.00702 µM
[26] = RPMI 5 mM glucose + 10% dialyzed FBS, 0.0211 µM
[27] = RPMI 5 mM glucose + 10% dialyzed FBS, 0.0632 µM
[28] = RPMI 5 mM glucose + 10% dialyzed FBS, 0.19 µM
[29] = RPMI 5 mM glucose + 10% dialyzed FBS, 0.569 µM
[30] = RPMI 5 mM glucose + 10% dialyzed FBS, 1.71 µM
[31] = RPMI 5 mM glucose + 10% dialyzed FBS, 5.12 µM
[32] = RPMI 5 mM glucose + 10% dialyzed FBS, 15.4 µM
[33] = RPMI 5 mM glucose + 10% dialyzed FBS, 46.1 µM

Structure (SMILES) | cell viability [1] [%] | cell viability [2] [%] | cell viability [3] [%] | cell viability [4] [%] | cell viability [5] [%] | cell viability [6] [%] | cell viability [7] [%] | cell viability [8] [%] | cell viability [9] [%] | cell viability [10] [%] | cell viability [11] [%] | cell viability [12] [%] | cell viability [13] [%] | cell viability [14] [%] | cell viability [15] [%] | cell viability [16] [%] | cell viability [17] [%] | cell viability [18] [%] | cell viability [19] [%] | cell viability [20] [%] | cell viability [21] [%] | cell viability [22] [%] | cell viability [23] [%] | cell viability [24] [%] | cell viability [25] [%] | cell viability [26] [%] | cell viability [27] [%] | cell viability [28] [%] | cell viability [29] [%] | cell viability [30] [%] | cell viability [31] [%] | cell viability [32] [%] | cell viability [33] [%]
Cc1c(C(=O)Nc2cccc(C(F)(F)F)c2)cc(-c2ccccc2)n1CCCN1CCOCC1 | 116 | 112 | 113 | 112 | 106 | 106 | 104 | 99.2 | 104 | 91.7 | 79.7 | 111 | 109 | 115 | 105 | 113 | 119 | 108 | 108 | 97.1 | 88 | 70.3 | 105 | 117 | 114 | 114 | 114 | 107 | 106 | 103 | 103 | 94 | 74.1
CN(C)C[C@@H]1CC[N]2C=C(C3=C2C=CC=C3)C/4=C(/C(=O)NC4=O)C5=C[N](CCO1)C6=C5C=CC=C6 | 99.6 | 98.3 | 100 | 106 | 105 | 110 | 107 | 100 | 101 | 97.5 | 30.7 | 92.9 | 94.8 | 100 | 98.6 | 108 | 104 | 95.7 | 96.2 | 97.6 | 83.4 | 55.3 | 110 | 106 | 108 | 109 | 103 | 102 | 114 | 117 | 105 | 93.7 | 58.9
COC(=O)[C@@H](N)CCCNC(=N)N[N+](=O)[O-] | 94.6 | 102 | 104 | 98.4 | 111 | 98.1 | 110 | 107 | 107 | 103 | 115 | 85.4 | 96.7 | 99 | 94 | 105 | 98.5 | 114 | 103 | 105 | 99.3 | 105 | 85.9 | 93 | 90.7 | 97.5 | 99.2 | 91.5 | 99.7 | 98.6 | 95.9 | 92 | 94
CC[C@@]1(O)C[C@H](O[C@H]2C[C@H](N(C)C)[C@H](O[C@H]3C[C@H](O)[C@H](O[C@H]4CCC(=O)[C@H](C)O4)[C@H](C)O3)[C@H](C)O2)c2c(cc3c(c2O)C(=O)c2c(O)cccc2C3=O)[C@H]1C(=O)OC | 94.5 | 104 | 97 | 102 | 103 | 106 | 109 | 99.9 | 94.5 | 85.5 | 90.1 | 94.7 | 96.5 | 96.8 | 98.7 | 102 | 99 | 97.2 | 73.2 | 75.7 | 63.9 | 53.5 | 95.5 | 91.1 | 90.8 | 93.5 | 94.9 | 106 | 98.7 | 84.2 | 78 | 76.8 | 63.3
CC1(C)CC(O)CC(C)(C)N1[O] | 111 | 112 | 119 | 118 | 128 | 121 | 132 | 124 | 120 | 117 | 119 | 110 | 111 | 109 | 110 | 126 | 134 | 125 | 114 | 119 | 119 | 116 | 107 | 122 | 113 | 120 | 125 | 129 | 125 | 134 | 127 | 127 | 126
CCN(CC)CCN1C(=O)\C(=N/C2=CC=CC=C12)CC3=CC=C(OC)C=C3 | 107 | 111 | 110 | 114 | 119 | 114 | 120 | 113 | 109 | 114 | 113 | 93.6 | 113 | 109 | 119 | 127 | 121 | 130 | 119 | 111 | 114 | 119 | 107 | 112 | 118 | 107 | 112 | 109 | 109 | 111 | 104 | 96.5 | 96.6
NC\1=N\C(=O)N(\C=C1)[C@H]\2[C@H](O)[C@H](O)C(=C2F)\CO | 95.2 | 106 | 104 | 105 | 105 | 106 | 104 | 60 | 28 | 19.3 | 16.5 | 89.4 | 96.8 | 96.3 | 106 | 103 | 114 | 101 | 95.7 | 47.8 | 29.1 | 16.9 | 91.8 | 114 | 114 | 116 | 115 | 108 | 100 | 89.4 | 67.9 | 23.4 | 11.4
CCCCCCCCCCCCCCCCCCOP(=O)([O-])OC1CC[N+](C)(C)CC1 | 112 | 111 | 114 | 113 | 111 | 109 | 121 | 114 | 106 | 104 | 112 | 104 | 106 | 99.9 | 87 | 107 | 111 | 113 | 124 | 103 | 105 | 95.3 | 105 | 110 | 126 | 78.2 | 111 | 110 | 115 | 121 | 110 | 105 | 113
CC(C)[C@H](CO)Nc1nc(Nc2cccc(Cl)c2)c2ncn(C(C)C)c2n1 | 98.7 | 112 | 113 | 115 | 113 | 112 | 107 | 104 | 45.9 | 26.6 | 8.74 | 110 | 109 | 120 | 124 | 125 | 115 | 118 | 118 | 76 | 42 | 10.2 | 97.7 | 110 | 112 | 117 | 115 | 106 | 93.4 | 102 | 58.5 | 18.2 | 4.68
O=C(NNC(=O)c1ccc(CN[S+](=O)([O-])c2ccc(F)c(Cl)c2)cc1)c1ccccc1 | 97.4 | 106 | 104 | 99 | 109 | 107 | 107 | 109 | 113 | 105 | 113 | 99.8 | 101 | 98.7 | 96.5 | 112 | 100 | 106 | 98.6 | 91.6 | 114 | 105 | 87 | 98.3 | 98.3 | 102 | 103 | 98.1 | 102 | 103 | 103 | 107 | 101
Oc1cc(O)cc(/C=C/c2ccc(O)c(O)c2)c1 | 103 | 103 | 100 | 106 | 103 | 109 | 106 | 111 | 98 | 85.2 | 28.3 | 97.5 | 92.7 | 101 | 104 | 102 | 97.8 | 105 | 97 | 85 | 91.1 | 45.6 | 87.6 | 88.3 | 101 | 104 | 102 | 104 | 93 | 101 | 93.6 | 84.4 | 40.7
CN[C@@H]1C[C@H]2O[C@@](C)([C@@H]1OC)n1c3ccccc3c3c4c(c5c6ccccc6n2c5c31)C(=O)N[C@H]4O | 80.5 | 86.5 | 85.5 | 89.3 | 84.7 | 75.9 | 63.7 | 22.5 | 16.8 | 23.2 | 7.88 | 80 | 78 | 83.8 | 84.2 | 78.4 | 63.4 | 44.5 | 12.8 | 12.8 | 14.8 | 15 | 84.7 | 90.4 | 85.9 | 85.8 | 81.2 | 55.4 | 62 | 29 | 14 | 17.7 | 11.5
COc1ccc(Nc2cc(-c3cnc(N)nc3)nc(N3CCOCC3)n2)cn1 | 98.7 | 101 | 98.4 | 102 | 103 | 94.9 | 96.7 | 89.9 | 63.7 | 71.1 | 71.9 | 89.9 | 90.9 | 93.9 | 90.7 | 100 | 87.7 | 89.5 | 79.3 | 52.2 | 54.1 | 56.6 | 93.7 | 90.4 | 95.8 | 98.7 | 102 | 98.6 | 86.3 | 88.1 | 50.4 | 54.1 | 51.7
O=C1N\2CCC3=C([NH]C4=C3C=CC=C4)C2=N/C5=CC=CC=C15 | 119 | 120 | 128 | 126 | 129 | 130 | 129 | 129 | 132 | 113 | 92.3 |  |  |  |  |  |  |  |  |  |  |  |  |  |  |  |  |  |  |  |  |  | 
